Molecules are shown by their SMILES.

The first test deals with T1, human CRTH2 (Homo sapiens (Human), UniProt Q9Y5Y4). Nature of the test: Calcium Flux Assay Using Fluorometric Imaging Plate Reader (FLIPR). Particulars: CHO-K1 cells with G-alpha 16 and human CRTH2; inhibition of DK-PGD2 ligand-induced Ca2+ flux. It counts as cell-based. The procedure: Calcium Flux Assay Using Fluorometric Imaging Plate Reader (FLIPR)
T1 sequence (Q9Y5Y4 whole entry): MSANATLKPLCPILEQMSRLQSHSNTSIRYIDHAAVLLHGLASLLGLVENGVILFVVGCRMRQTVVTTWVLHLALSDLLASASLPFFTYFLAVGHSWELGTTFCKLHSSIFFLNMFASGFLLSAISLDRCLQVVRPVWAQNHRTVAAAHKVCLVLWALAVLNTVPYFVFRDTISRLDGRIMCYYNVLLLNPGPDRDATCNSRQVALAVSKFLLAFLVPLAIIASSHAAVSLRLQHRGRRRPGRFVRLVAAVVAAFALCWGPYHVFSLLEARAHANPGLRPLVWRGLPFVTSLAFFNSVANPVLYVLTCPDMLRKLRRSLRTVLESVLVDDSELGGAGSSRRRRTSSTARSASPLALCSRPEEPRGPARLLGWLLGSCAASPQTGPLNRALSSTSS
Cell Culture Conditions: CHO-K1 cells previously transfected with G-alpha 16 were subsequently transfected with the human CRTH2 receptor and the neomycin resistance gene. Following selection in 800 μg/mL G418 (geneticin), individual clones were assayed for their receptor expression based on staining with an anti human CRTH2 IgG, followed by assaying for their response to 13,14-dihydro-15-keto Prostaglandin D2 (DK-PDG2) (ligand) in the Ca^2+ Flux assay. Positive clones were then cloned by limiting dilution cloning. The transfected cells were cultured in Ham's F-12 medium supplemented with 10% fetal bovine serum, 2 mM glutamine, 100 U/mL penicillin/100 μg/mL streptomycin, 200 μg/mL hygromycin B, and 800 μg/mL G418 (geneticin). Cells were harvested with trypsin-EDTA (trypsin-ethylenediaminetetraacetic acid) and counted using ViaCount® reagent (from Guava Technologies, Inc. which contains two DNA-binding dyes that enable the reagent user to distinguish between viable and non-viable cells). The cell suspension volume was adjusted to 2.5×10^5 cells/mL with complete growth media. Aliquots of 50 μL were dispensed into BD Falcon™ 384 well black/clear microplates (from BD Biosciences, a division of Becton, Dickinson and Company) and the microplates were placed in a 37° C. CO2 incubator overnight. The following day, the microplates were used in the assay.
Loading Buffer containing dye (from the FLIPR® Calcium 3 Assay Kit from Molecular Devices, a division of MDS Analytical Technologies and MDS Inc.) was prepared by dissolving the contents of one bottle into 200 mL Hank's Balanced Salt Solution containing 20 mM HEPES (4-(2-hydroxyethyl)-1-piperazineethanesulfonic acid) and 2.5 mM probenecid. Growth media was removed from the cell plates and 25 μL of Hank's Balanced Salt Solution (HBSS) containing 20 mM HEPES, 0.05% BSA and 2.5 mM probenecid was added to each well followed by 25 μL of diluted dye using a Multidrop dispenser. The plates were then incubated for 1 hour at 37° C.
During the incubation, test compound plates were prepared by adding 90 μL of HBSS/20 mM HEPES/0.005% BSA buffer to the 2 μL of serial diluted compounds. To prepare serial diluted compounds, 20 mM stocks of compounds were dissolved in 100% DMSO. The compound dilution plate was set up as follows: well #1 received 5 μL of compound plus 10 μL of DMSO. Wells 2-10 received 10 μL of DMSO. 5 μL was mixed and transferred from well #1 into well #2. 1:3 serial dilutions were continued out 10 steps. 2 μL of diluted compound was transferred into duplicate wells of a 384 well “assay plate” and then 90 μL of buffer was added.
After incubation, both the cell and “assay plate” plates were brought to the fluorometric imaging plate reader (FLIPR®) and 20 μL of the diluted compounds were transferred to the cell plates by the FLIPR®. Plates were then incubated for 1 hour at room temperature. […] During the assay, fluorescence readings were taken simultaneously from all 384 wells of the cell plate every 1.5 seconds. Five readings were taken to establish a stable baseline, then 20 μL of sample was rapidly (30 μL/sec) and simultaneously added to each well of the cell plate. The fluorescence was continuously monitored before, during and after sample addition for a total elapsed time of 100 seconds. Responses (increase in peak fluorescence) in each well following agonist addition were determined. The initial fluorescence reading from each well, prior to ligand stimulation, was used as a zero baseline value for the data from that well. The responses were expressed as % inhibition of the buffer control.
(In general: A change in cytosolic calcium serves as a functional read-out for many receptors and channels.)
Turning to `Cc1c(CC(=O)O)cc2ccc(F)cc2c1-c1ccc(S(C)(=O)=O)cn1` [Example 58, [6-Fluoro-4-(5-methanesulfonyl-pyridin-2-yl)-3-methyl-naphthalen-2-yl]-acetic acid], the IC50 (in general, the concentration that gives 50% inhibition) was 1120 nM.
Still for that read-out and setting: to `Cc1c(CC(=O)O)cc2ccc(F)cc2c1-c1ccc(S(C)(=O)=O)cc1` [Example 54, [6-Fluoro-4-(4-methansulfonyl-phenyl)-3-methyl-naphthalen-2-yl]-acetic acid] belongs 25 nM; to `Cc1c(CC(=O)O)cc2ccc(F)cc2c1-c1ccc(S(=O)(=O)c2ccc(Cl)cc2Cl)cc1` [Example 8, {4-[4-(2,4-Dichloro-benzenesulfonyl)-phenyl]-6-fluoro-3-methyl-naphthalen-2-yl}-acetic acid], 9.1 nM; to `COc1ccc(CNS(=O)(=O)c2ccc(-c3c(C)c(CC(=O)O)cc4ccc(Cl)cc34)cc2)cc1` [Example 39, {6-Chloro-4-[4-(4-methoxy-benzylsulfamoyl)-phenyl]-3-methyl-naphthalen-2-yl}-acetic acid], 13.2 nM.
On the same count and under the same terms, to `Cc1c(CC(=O)O)cc2ccc(F)cc2c1-c1ccc(NS(=O)(=O)c2cc(C(F)(F)F)cc(C(F)(F)F)c2)cc1` [Example 60, {4-[4-(3,5-Bis-trifluoromethyl-benzenesulfonylamino)-phenyl]-6-fluoro-3-methyl-naphthalen-2-yl}-acetic acid] belongs 0.1 nM; to `Cc1c(CC(=O)O)cc2ccc(F)cc2c1-c1ccc(S(=O)(=O)c2cc(C(F)(F)F)cc(C(F)(F)F)c2)cc1` [Example 12, {4-[4-(3,5-Bis-trifluoromethyl-benzenesulfonyl)-phenyl]-6-fluoro-3-methyl-naphthalen-2-yl}-acetic acid], 14 nM; to `Cc1c(CC(=O)O)cc2ccc(F)cc2c1-c1ccc(S(=O)(=O)c2ccc(Cl)cc2)cc1` [Example 4, {4-[4-(4-Chloro-benzenesulfonyl)-phenyl]-6-fluoro-3-methyl-naphthalen-2-yl}-acetic acid], 3.2 nM.
Same read-out and setting: the result for `Cc1c(CC(=O)O)cc2ccc(F)cc2c1-c1ccc(S(=O)(=O)c2cc(Cl)cc(Cl)c2)cc1` [Example 13, {4-[4-(3,5-Dichloro-benzenesulfonyl)-phenyl]-6-fluoro-3-methyl-naphthalen-2-yl}-acetic acid] reads 5.4 nM; that for `Cc1c(CC(=O)O)cc2ccc(Cl)cc2c1-c1ccc(S(=O)(=O)Nc2ccc(OC(F)(F)F)cc2)cc1` [Example 30, {6-Chloro-3-methyl-4-[4-(4-trifluoromethoxy-phenylsulfamoyl)-phenyl]-naphthalen-2-yl}-acetic acid], 34.3 nM; that for `Cc1c(CC(=O)O)cc2ccc(Cl)cc2c1-c1ccc(S(=O)(=O)c2ccc(Cl)cc2)cc1` [Example 17, {6-Chloro-4-[4-(4-chloro-benzenesulfonyl)-phenyl]-3-methyl-naphthalen-2-yl}-acetic acid], 7 nM.
With `Cc1c(CC(=O)O)cc2ccc(Cl)cc2c1-c1ccc(S(=O)(=O)c2ccccc2C(F)(F)F)cc1` [Example 18, {6-Chloro-3-methyl-4-[4-(2-trifluoromethyl-benzenesulfonyl)-phenyl]-naphthalen-2-yl}-acetic acid], the IC50 was 2.3 nM.

The target of another test is T1, human CRTH2. In words: Human CRTH2 Receptor Binding Assay (whole cell, [3H]ramatroban). The note with it: CHO-K1 cells expressing human CRTH2 and G-alpha16; 20 nM [3H]ramatroban; 1 hour, room temperature. From the text: Human CRTH2 Receptor Binding Assay
A whole cell receptor binding assay using [^3H]ramatroban as the competing radioactive ligand was employed to evaluate the compound binding activity to human CRTH2. The radioactive ligand [^3H]ramatroban was synthesized according to Sugimoto et. al. (Eur. J. Pharmacol. 524, 30-37, 2005) to a specific activity of 42 Ci/mmol.
A cell line stably expressing human CRTH2 was established by transfecting CHO-K1 cells with two mammalian expression vectors that harbored human CRTH2 and G-alpha16 cDNAs, respectively, using FuGene® 6 transfection reagent (from Roche). Stable clones expressing CRTH2 were selected by staining each clone with BM16 (BD Pharmingen™ from BD Biosciences, a division of Becton, Dickinson and Company), which is a rat monoclonal antibody to human CRTH2. The cells were maintained as monolayer cultures in Ham's F-12 medium containing 10% fetal bovine serum, 100 units/mL penicillin, 100 μg/mL streptomycin, 2 mM glutamine, 0.5 mg/mL G418 (geneticin) for CRTH2, and 0.2 mg/mL hygromycin-B (for G-alpha 16). For whole cell receptor binding assay, the monolayer cells were rinsed once with PBS (phosphate buffered saline), dissociated using ethylenediaminetetraacetate (Versene™ EDTA from Lonza Inc.), and suspended in PBS containing 10 mM MgCl2 and 0.06% BSA (bovine serum albumin) at 1.5×10^6 cells/mL.
The binding reactions (0.2 mL) were performed in 96-well plates at room temperature in PBS containing 1.5×10^5 cells, 10 mM MgCl2, 0.06% BSA, 20 nM [^3H]ramatroban, and test compound at various concentrations. After 1 hour of binding reactions, the cells were harvested on GF™/B filter microplates (microtiter plates with embedded glass fiber from PerkinElmer, Inc.) and washed 5 times with PBS using a Filtermate™ Harvester (a cell harvester that harvests and washes cells from microplates from PerkinElmer, Inc.). The radioactivities bound to the cells were determined using a microplate scintillation counter (TopCount® NXT, from PerkinElmer, Inc.) after adding 50 μL of Microscint™ 20 scintillation fluid (from PerkinElmer, Inc.) to each well of the filter plates. The radioactivity from non-specific binding was determined by replacing compound with 10 μM of 15(R)-15-methyl PGD2 (from Cayman Chemical Company) in the reaction mixtures. The radioactivity bound to the cells in the absence of compound (total binding) was determined by replacing compound with 0.25% of DMSO (dimethyl sulfoxide) in the reaction mixture. Specific binding data were obtained by subtracting the radioactivity of non-specific binding from each binding data.
The IC50 value is defined as the concentration of the tested compound that is required for 50% inhibition of total specific binding. In order to calculate the IC50 value, the percent inhibition data were determined for 7 concentrations for each compound. The percent inhibition for a compound at each concentration was calculated according to the following formula, [1-(specific binding in the presence of compound)/(total specific binding)]×100. The IC50 value was then obtained by fitting the percent inhibition data to a sigmoidal dose-response (4 parameter logistic) model in the XLfit® software Excel add-in program [from ID Business Solutions Ltd., model 205, where F(x)=(A+(B−A)/(1+((C/x)^D)))].
The molecule `Cc1c(CC(=O)O)cc2ccc(F)cc2c1-c1ccc(S(C)(=O)=O)cn1` [Example 58, [6-Fluoro-4-(5-methanesulfonyl-pyridin-2-yl)-3-methyl-naphthalen-2-yl]-acetic acid] came in with an IC50 of 139 nM.
Same read-out and setting: the result for `Cc1c(CC(=O)O)cc2ccc(F)cc2c1-c1ccc(NS(=O)(=O)c2ccccc2)cc1` [Example 59, [4-(4-Benzenesulfonylamino-phenyl)-6-fluoro-3-methyl-naphthalen-2-yl]-acetic acid] reads 3.2 nM; that for `Cc1c(CC(=O)O)cc2ccc(Cl)cc2c1-c1ccc(NS(=O)(=O)c2ccccc2)cc1` [Example 61, [4-(4-Benzenesulfonylamino-phenyl)-6-chloro-3-methyl-naphthalen-2-yl]-acetic acid], 3.7 nM.
On the same count and under the same terms, the result for `Cc1c(CC(=O)O)cc2ccc(F)cc2c1-c1ccc(S(C)(=O)=O)cc1` [Example 54, [6-Fluoro-4-(4-methansulfonyl-phenyl)-3-methyl-naphthalen-2-yl]-acetic acid] reads 40 nM; that for `Cc1c(CC(=O)O)cc2ccc(Cl)cc2c1-c1ccc(NC(=O)Nc2ccccc2)cc1` [Example 66, {6-Chloro-3-methyl-4-[4-(3-phenyl-ureido)-phenyl]-naphthalen-2-yl}-acetic acid], 19 nM.
Still for that read-out and setting: the result for `Cc1c(CC(=O)O)cc2ccc(Cl)cc2c1-c1ccc(S(=O)(=O)N2CCOCC2)cc1` [Example 55, {6-Chloro-3-methyl-4-[4-(morpholino-4-sulfonyl)-phenyl]-naphthalen-2-yl}-acetic acid] reads 2.4 nM; that for `Cc1c(CC(=O)O)cc2ccc(Cl)cc2c1-c1ccc(NC(=O)c2ccccc2)cc1` [Example 65, [4-(4-Benzoylamino-phenyl)-6-chloro-3-methyl-naphthalen-2-yl]-acetic acid], 6.2 nM.
On to `Cc1c(CC(=O)O)cc2ccc(Cl)cc2c1-c1ccc(NS(=O)(=O)c2ccccc2C(F)(F)F)cc1` [Example 62, {6-Chloro-3-methyl-4-[4-(2-trifluoromethyl-benzenesulfonylamino)-phenyl]-naphthalen-2-yl}-acetic acid], for which the IC50 was 8.9 nM.
Still for that read-out and setting: the result for `Cc1ccccc1S(=O)(=O)Nc1ccc(-c2c(C)c(CC(=O)O)cc3ccc(Cl)cc23)cc1` [Example 63, {6-Chloro-3-methyl-4-[4-(toluene-2-sulfonylamino)-phenyl]-naphthalen-2-yl}-acetic acid] reads 8.3 nM; that for `Cc1c(CC(=O)O)cc2ccc(F)cc2c1-c1ccc(NS(=O)(=O)c2cc(C(F)(F)F)cc(C(F)(F)F)c2)cc1` [Example 60, {4-[4-(3,5-Bis-trifluoromethyl-benzenesulfonylamino)-phenyl]-6-fluoro-3-methyl-naphthalen-2-yl}-acetic acid], 5.6 nM.
Still for that read-out and setting: to `CC(=O)Nc1ccc(-c2c(C)c(CC(=O)O)cc3ccc(Cl)cc23)cc1` [Example 64, [4-(4-Acetylamino-phenyl)-6-chloro-3-methyl-naphthalen-2-yl]-acetic acid] belongs 29.2 nM.

The values are drawn from US9000044B2, “Substituted naphthylacetic acids” (Hoffmann-La Roche Inc., priority 2012, dated 2015).
